The source of these data is ChEMBL document CHEMBL4414611, “Hypascyrins A-E, Prenylated Acylphloroglucinols from Hypericum ascyron” (2019).

The structures appear in SMILES notation. ≈ marks a conversion by molar mass, not a printed value.

Common to all, as to format: functional
One experiment deals with Escherichia coli. Briefly: Antibacterial activity against Escherichia coli assessed as reduction in bacterial growth incubated for 20 hrs by broth microdilution assay.
Experiment [1] concerns Staphylococcus aureus. Briefly: Antibacterial activity against methicillin susceptible Staphylococcus aureus assessed as reduction in bacterial growth incubated for 20 hrs by broth microdilution assay. For orientation: In broth dilution the organism is exposed to a series of concentrations in liquid medium.
For experiment [2], the system named is Staphylococcus aureus. The experiment can be described thus: Antibacterial activity against methicillin resistant Staphylococcus aureus assessed as reduction in bacterial growth incubated for 20 hrs by broth microdilution assay.
A further experiment has as its system Bacillus subtilis. Briefly: Antibacterial activity against Bacillus subtilis assessed as reduction in bacterial growth incubated for 20 hrs by broth microdilution assay.

The term MIC50 denotes an inhibitory concentration at the 50% level, which refers to growth in some studies and to a panel of isolates in others. For orientation: MIC means the least concentration at which growth counts as inhibited. Take `C=C(C)[C@@H]1CC[C@](C)(O)[C@H](C2=C(O)C(CC=C(C)C)(CC=C(C)C)C(=O)C(C(=O)CC(C)C)=C2O)C1`: the MIC50 is over 64 µM in the experiment with Escherichia coli, 2 µM (≈ 0.997 µg/mL) with Staphylococcus aureus [1] and 2 µM (≈ 0.997 µg/mL) in the experiment on Staphylococcus aureus [2]. Also, the MIC in the experiment on Staphylococcus aureus [1] was 1 to 2 µM (≈ 0.499 to 0.997 µg/mL); in the experiment with Bacillus subtilis it was 2 µM (≈ 0.997 µg/mL).
For `CC(C)=CCC1(CC=C(C)C)C(=O)C(C(=O)CC(C)C)=C(O)C([C@@H]2C=C(C(C)C)CC[C@]2(C)O)=C1O`, the figures for the MIC50 in the experiment with Escherichia coli, in the experiment with Staphylococcus aureus [1] and with Staphylococcus aureus [2] were over 64 µM, 4 µM (≈ 1.99 µg/mL) and 4 µM (≈ 1.99 µg/mL), respectively. Also, the figures for the minimum inhibitory concentration (MIC) in the experiment with Staphylococcus aureus [1], in the experiment on Staphylococcus aureus [2] and with Bacillus subtilis were 4 µM (≈ 1.99 µg/mL), 4 to 8 µM (≈ 1.99 to 3.99 µg/mL) and 4 µM (≈ 1.99 µg/mL), respectively.
Turning to `CCC(C)C(=O)C1=C(O)C([C@@H]2C=C(C(C)C)CC[C@]2(C)O)=C(O)C(CC=C(C)C)(CC=C(C)C)C1=O` (stereo partly specified), the MIC50 is over 64 µM in the experiment on Escherichia coli, 8 µM (≈ 3.99 µg/mL) with Staphylococcus aureus [1] and 8 µM (≈ 3.99 µg/mL) in the experiment on Staphylococcus aureus [2]. The results for the MIC in the experiment with Staphylococcus aureus [1] and with Bacillus subtilis were 4 to 8 µM (≈ 1.99 to 3.99 µg/mL) and 4 µM (≈ 1.99 µg/mL), respectively.
